Assay results: US20130123481A1, “MODIFIED NUCLEOSIDES, NUCLEOTIDES, AND NUCLEIC ACIDS, AND USES THEREOF” (MODERNA THERAPEUTICS, priority 2011, published 2013)

test system: human embryonic kidney 293 (HEK293) cells; test: Toxicity of Nucleoside Triphosphates (NTPs), CYTO TOX-GLO assay; assay type: cell-based; conditions: human, 4 h, 2.1 nM
Description: The cytotoxicity of natural and modified nucleoside triphosphates (NTPs) alone or in combination with other bases, was analyzed in human embryonic kidney 293 (HEK293) cells in the absence of transfection reagent. […] 10 ul of the NTPs outlined in Table 12 were combined with 10 ul of lipid dilution and incubated for 30 minutes to form a complex before 80 ul of the HEK293 cell suspension was added to the NTP complex. Natural and modified NTPs were transfected at a concentration of 2.1 nM, 21 nM, 210 nM, 2.1 um, 21 uM, 210 um or 2.1 mM. NTPs in combination were transfected at a total concentration of NTPs of 8.4 nM, 84 nM, 840 nM, 8.4 uM, 84 uM, 840 uM and 8.4 mM.

SMILES	percent of viable cells [%]
Nc1nc2nc[nH]c2c(=O)[nH]1 [Guanine]	93.33
Cc1c[nH]c(=O)nc1N [5-methyl cytosine]	92.23
O=c1cc[nH]c(=O)[nH]1 [Uracil]	93.15
Nc1ncnc2nc[nH]c12 [Adenine]	93.48
Nc1cc[nH]c(=O)n1 [Cytosine]	93.34

same assay, conditions: human, 4 h, 21 nM

SMILES	percent of viable cells [%]
Nc1nc2nc[nH]c2c(=O)[nH]1 [Guanine]	92.84
Cc1c[nH]c(=O)nc1N [5-methyl cytosine]	91.40
O=c1cc[nH]c(=O)[nH]1 [Uracil]	92.90
Nc1ncnc2nc[nH]c12 [Adenine]	93.21
Nc1cc[nH]c(=O)n1 [Cytosine]	93.11

same assay, conditions: human, 4 h, 210 nM

SMILES	percent of viable cells [%]
Nc1nc2nc[nH]c2c(=O)[nH]1 [Guanine]	90.00
Cc1c[nH]c(=O)nc1N [5-methyl cytosine]	92.31
O=c1cc[nH]c(=O)[nH]1 [Uracil]	91.05
Nc1ncnc2nc[nH]c12 [Adenine]	90.36
Nc1cc[nH]c(=O)n1 [Cytosine]	88.95

same assay, conditions: human, 4 h, 2.1 uM

SMILES	percent of viable cells [%]
Nc1nc2nc[nH]c2c(=O)[nH]1 [Guanine]	90.60
Cc1c[nH]c(=O)nc1N [5-methyl cytosine]	91.31
O=c1cc[nH]c(=O)[nH]1 [Uracil]	90.90
Nc1ncnc2nc[nH]c12 [Adenine]	90.23
Nc1cc[nH]c(=O)n1 [Cytosine]	90.49

same assay, conditions: human, 4 h, 21 uM

SMILES	percent of viable cells [%]
Nc1nc2nc[nH]c2c(=O)[nH]1 [Guanine]	91.36
Cc1c[nH]c(=O)nc1N [5-methyl cytosine]	91.16
O=c1cc[nH]c(=O)[nH]1 [Uracil]	91.95
Nc1ncnc2nc[nH]c12 [Adenine]	91.20
Nc1cc[nH]c(=O)n1 [Cytosine]	91.41

same assay, conditions: human, 4 h, 210 uM

SMILES	percent of viable cells [%]
Nc1nc2nc[nH]c2c(=O)[nH]1 [Guanine]	90.14
Cc1c[nH]c(=O)nc1N [5-methyl cytosine]	91.54
O=c1cc[nH]c(=O)[nH]1 [Uracil]	89.60
Nc1ncnc2nc[nH]c12 [Adenine]	85.97
Nc1cc[nH]c(=O)n1 [Cytosine]	89.88

same assay, conditions: human, 4 h, 2.1 mM

SMILES	percent of viable cells [%]
Nc1nc2nc[nH]c2c(=O)[nH]1 [Guanine]	90.96
Cc1c[nH]c(=O)nc1N [5-methyl cytosine]	92.01
O=c1cc[nH]c(=O)[nH]1 [Uracil]	90.97
Nc1ncnc2nc[nH]c12 [Adenine]	90.03
Nc1cc[nH]c(=O)n1 [Cytosine]	90.51

same assay, conditions: human, 24 h, 2.1 nM

SMILES	percent of viable cells [%]
Nc1nc2nc[nH]c2c(=O)[nH]1 [Guanine]	85.41
Cc1c[nH]c(=O)nc1N [5-methyl cytosine]	86.35
O=c1cc[nH]c(=O)[nH]1 [Uracil]	87.63
Nc1ncnc2nc[nH]c12 [Adenine]	86.44
Nc1cc[nH]c(=O)n1 [Cytosine]	85.78

same assay, conditions: human, 24 h, 21 nM

SMILES	percent of viable cells [%]
Nc1nc2nc[nH]c2c(=O)[nH]1 [Guanine]	85.50
Cc1c[nH]c(=O)nc1N [5-methyl cytosine]	86.37
O=c1cc[nH]c(=O)[nH]1 [Uracil]	87.23
Nc1ncnc2nc[nH]c12 [Adenine]	87.19
Nc1cc[nH]c(=O)n1 [Cytosine]	86.16

same assay, conditions: human, 24 h, 210 nM

SMILES	percent of viable cells [%]
Nc1nc2nc[nH]c2c(=O)[nH]1 [Guanine]	86.35
Cc1c[nH]c(=O)nc1N [5-methyl cytosine]	84.71
O=c1cc[nH]c(=O)[nH]1 [Uracil]	86.52
Nc1ncnc2nc[nH]c12 [Adenine]	86.94
Nc1cc[nH]c(=O)n1 [Cytosine]	86.12

same assay, conditions: human, 24 h, 2.1 uM

SMILES	percent of viable cells [%]
Nc1nc2nc[nH]c2c(=O)[nH]1 [Guanine]	86.13
Cc1c[nH]c(=O)nc1N [5-methyl cytosine]	85.14
O=c1cc[nH]c(=O)[nH]1 [Uracil]	86.75
Nc1ncnc2nc[nH]c12 [Adenine]	86.81
Nc1cc[nH]c(=O)n1 [Cytosine]	86.70

same assay, conditions: human, 24 h, 21 uM

SMILES	percent of viable cells [%]
Nc1nc2nc[nH]c2c(=O)[nH]1 [Guanine]	85.93
Cc1c[nH]c(=O)nc1N [5-methyl cytosine]	84.72
O=c1cc[nH]c(=O)[nH]1 [Uracil]	85.89
Nc1ncnc2nc[nH]c12 [Adenine]	86.86
Nc1cc[nH]c(=O)n1 [Cytosine]	85.72

same assay, conditions: human, 24 h, 210 uM

SMILES	percent of viable cells [%]
Nc1nc2nc[nH]c2c(=O)[nH]1 [Guanine]	85.86
Cc1c[nH]c(=O)nc1N [5-methyl cytosine]	85.76
O=c1cc[nH]c(=O)[nH]1 [Uracil]	86.48
Nc1ncnc2nc[nH]c12 [Adenine]	87.31
Nc1cc[nH]c(=O)n1 [Cytosine]	86.33

same assay, conditions: human, 24 h, 2.1 mM

SMILES	percent of viable cells [%]
Nc1nc2nc[nH]c2c(=O)[nH]1 [Guanine]	86.37
Cc1c[nH]c(=O)nc1N [5-methyl cytosine]	87.97
O=c1cc[nH]c(=O)[nH]1 [Uracil]	87.68
Nc1ncnc2nc[nH]c12 [Adenine]	88.42
Nc1cc[nH]c(=O)n1 [Cytosine]	86.92

same assay, conditions: human, 48 h, 2.1 nM

SMILES	percent of viable cells [%]
Nc1nc2nc[nH]c2c(=O)[nH]1 [Guanine]	89.57
Cc1c[nH]c(=O)nc1N [5-methyl cytosine]	88.18
O=c1cc[nH]c(=O)[nH]1 [Uracil]	91.28
Nc1ncnc2nc[nH]c12 [Adenine]	92.12
Nc1cc[nH]c(=O)n1 [Cytosine]	88.99

same assay, conditions: human, 48 h, 21 nM

SMILES	percent of viable cells [%]
Nc1nc2nc[nH]c2c(=O)[nH]1 [Guanine]	87.92
Cc1c[nH]c(=O)nc1N [5-methyl cytosine]	87.10
O=c1cc[nH]c(=O)[nH]1 [Uracil]	88.89
Nc1ncnc2nc[nH]c12 [Adenine]	91.13
Nc1cc[nH]c(=O)n1 [Cytosine]	88.95

same assay, conditions: human, 48 h, 210 nM

SMILES	percent of viable cells [%]
Nc1nc2nc[nH]c2c(=O)[nH]1 [Guanine]	85.31
Cc1c[nH]c(=O)nc1N [5-methyl cytosine]	86.44
O=c1cc[nH]c(=O)[nH]1 [Uracil]	88.33
Nc1ncnc2nc[nH]c12 [Adenine]	89.17
Nc1cc[nH]c(=O)n1 [Cytosine]	85.36

same assay, conditions: human, 48 h, 2.1 uM

SMILES	percent of viable cells [%]
Nc1nc2nc[nH]c2c(=O)[nH]1 [Guanine]	87.89
Cc1c[nH]c(=O)nc1N [5-methyl cytosine]	86.18
O=c1cc[nH]c(=O)[nH]1 [Uracil]	89.44
Nc1ncnc2nc[nH]c12 [Adenine]	89.80
Nc1cc[nH]c(=O)n1 [Cytosine]	87.73

same assay, conditions: human, 48 h, 21 uM

SMILES	percent of viable cells [%]
Nc1nc2nc[nH]c2c(=O)[nH]1 [Guanine]	88.18
Cc1c[nH]c(=O)nc1N [5-methyl cytosine]	85.74
O=c1cc[nH]c(=O)[nH]1 [Uracil]	89.11
Nc1ncnc2nc[nH]c12 [Adenine]	89.94
Nc1cc[nH]c(=O)n1 [Cytosine]	87.28

same assay, conditions: human, 48 h, 210 uM

SMILES	percent of viable cells [%]
Nc1nc2nc[nH]c2c(=O)[nH]1 [Guanine]	87.05
Cc1c[nH]c(=O)nc1N [5-methyl cytosine]	85.94
O=c1cc[nH]c(=O)[nH]1 [Uracil]	88.98
Nc1ncnc2nc[nH]c12 [Adenine]	90.55
Nc1cc[nH]c(=O)n1 [Cytosine]	87.81

same assay, conditions: human, 48 h, 2.1 mM

SMILES	percent of viable cells [%]
Nc1nc2nc[nH]c2c(=O)[nH]1 [Guanine]	93.83
Cc1c[nH]c(=O)nc1N [5-methyl cytosine]	87.29
O=c1cc[nH]c(=O)[nH]1 [Uracil]	94.39
Nc1ncnc2nc[nH]c12 [Adenine]	93.71
Nc1cc[nH]c(=O)n1 [Cytosine]	94.23

same assay, conditions: human, 72 h, 2.1 nM

SMILES	percent of viable cells [%]
Nc1nc2nc[nH]c2c(=O)[nH]1 [Guanine]	93.72
Cc1c[nH]c(=O)nc1N [5-methyl cytosine]	91.93
O=c1cc[nH]c(=O)[nH]1 [Uracil]	95.51
Nc1ncnc2nc[nH]c12 [Adenine]	95.74
Nc1cc[nH]c(=O)n1 [Cytosine]	94.22

same assay, conditions: human, 72 h, 21 nM

SMILES	percent of viable cells [%]
Nc1nc2nc[nH]c2c(=O)[nH]1 [Guanine]	92.55
Cc1c[nH]c(=O)nc1N [5-methyl cytosine]	92.10
O=c1cc[nH]c(=O)[nH]1 [Uracil]	94.53
Nc1ncnc2nc[nH]c12 [Adenine]	93.88
Nc1cc[nH]c(=O)n1 [Cytosine]	91.80

same assay, conditions: human, 72 h, 210 nM

SMILES	percent of viable cells [%]
Nc1nc2nc[nH]c2c(=O)[nH]1 [Guanine]	92.19
Cc1c[nH]c(=O)nc1N [5-methyl cytosine]	89.97
O=c1cc[nH]c(=O)[nH]1 [Uracil]	94.50
Nc1ncnc2nc[nH]c12 [Adenine]	92.22
Nc1cc[nH]c(=O)n1 [Cytosine]	88.22

same assay, conditions: human, 72 h, 2.1 uM

SMILES	percent of viable cells [%]
Nc1nc2nc[nH]c2c(=O)[nH]1 [Guanine]	92.30
Cc1c[nH]c(=O)nc1N [5-methyl cytosine]	90.92
O=c1cc[nH]c(=O)[nH]1 [Uracil]	94.60
Nc1ncnc2nc[nH]c12 [Adenine]	94.58
Nc1cc[nH]c(=O)n1 [Cytosine]	88.93

same assay, conditions: human, 72 h, 21 uM

SMILES	percent of viable cells [%]
Nc1nc2nc[nH]c2c(=O)[nH]1 [Guanine]	92.39
Cc1c[nH]c(=O)nc1N [5-methyl cytosine]	92.26
O=c1cc[nH]c(=O)[nH]1 [Uracil]	93.63
Nc1ncnc2nc[nH]c12 [Adenine]	93.83
Nc1cc[nH]c(=O)n1 [Cytosine]	92.22

same assay, conditions: human, 72 h, 210 uM

SMILES	percent of viable cells [%]
Nc1nc2nc[nH]c2c(=O)[nH]1 [Guanine]	91.41
Cc1c[nH]c(=O)nc1N [5-methyl cytosine]	88.10
O=c1cc[nH]c(=O)[nH]1 [Uracil]	93.45
Nc1ncnc2nc[nH]c12 [Adenine]	94.81
Nc1cc[nH]c(=O)n1 [Cytosine]	92.34

same assay, conditions: human, 72 h, 2.1 mM

SMILES	percent of viable cells [%]
Nc1nc2nc[nH]c2c(=O)[nH]1 [Guanine]	97.04
Cc1c[nH]c(=O)nc1N [5-methyl cytosine]	96.08
O=c1cc[nH]c(=O)[nH]1 [Uracil]	96.82
Nc1ncnc2nc[nH]c12 [Adenine]	97.49
Nc1cc[nH]c(=O)n1 [Cytosine]	97.15
